Laboratory results reported in paper PMC10786919, “Design-rules for stapled peptides with in vivo activity and their application to Mdm2/X antagonists” (Nature Communications, 2024).
Values after ≈ are worked out from the molar mass of the structure shown. Where two headings read alike, the source gives them in different places. Positions of bridges follow the written chain, without caps; N, C: chain ends. Non-standard residues stand in square brackets, D forms with d. Residues, ends and D or L forms follow the SMILES beside them. Lys(N3) = [N-]=[N+]=NCCCC[C@H](N)C(=O)O; R8 = C=CCCCCCC[C@@](C)(N)C(=O)O; Cba = N[C@@H](CC1CCC1)C(=O)O; S5 = C=CCCC[C@](C)(N)C(=O)O; Ahx = NCCCCCC(=O)O; βAla = NCCC(=O)O

Tests used:
[1] = Solubility assay (kinetic solubility, PBS pH 7); assay type: physicochemical; conditions: pH 7, aqueous buffer, kinetic from dmso stock, pH 7, PBS; read-out: Solubility
In short: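 Reference standards were made by diluting the 10 mM stock to 100 µM in acetonitrile:methanol:DMSO 10:80:10. Solubility in µM was calculated as the sample peak area divided by the standard peak area, multiplied by the standard concentration.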

HCT116 cells = assay: Lactate dehydrogenase (LDH) release assay; assay type: cell-based
In short: (§1)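 Geometric means of at least three independent biological runs are given for LDH release measured in HCT116 cells stably expressing a p53-driven β-lactamase reporter. Plating density was 8000 cells/well; DMSO in wells was 0.5%.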

[2] = Lactate dehydrogenase (LDH) release assay; assay type: cell-based
In short: as §1

[3] = Experimental LogD (partition coefficient); conditions: not stated, Partition Coeff LogD
[4] = Nanoclick permeability assay
In short: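 Azido-peptide permeability was read as loss of NanoBRET signal (donor 450 nm, acceptor 610 nm) after adding NanoBret618-azide at 10 μM final.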

[5] = 0% FBS 4Hr, read-out: LDH: Cytotoxicity assay EC50

Compound | solubility kinetic [1] [µM] | LDH: Cytotoxicity assay % Effect (HCT116 cells; 0% FBS 4Hr) [%] | LDH: Cytotoxicity assay % Effect (HCT116 cells; 0% FBS 16Hr) [%] | EC50 [2, 5] [nM] | logD [3] | cell entry EC50 [4] [nM] | EPSA (physchem) [A^2] | LDH: Cytotoxicity assay % Effect (HCT116 cells) [%] | EC50 ([2]; LDH: Cytotoxicity assay EC50) [nM] | cell entry EC50 ([4]; Nanoclick permeability assay EC50) [nM]
CC(=O)N[C@@H](CCCCN=[N+]=[N-])C(=O)NCCC(=O)N[C@@H](CC(C)C)C(=O)N[C@H](C(=O)N[C@@H](Cc1ccccc1)C(=O)N[C@]1(C)CCCCCCC=CCCC[C@@](C)(C(=O)N[C@@H](CO)C(=O)N[C@@H](C)C(=O)N[C@@H](C)C(N)=O)NC(=O)[C@H](CC2CCC2)NC(=O)[C@H](CCCCN)NC(=O)[C@H](C)NC(=O)[C@H](Cc2c[nH]c3ccccc23)NC(=O)[C@H](Cc2ccc(O)cc2)NC(=O)[C@H](CCC(=O)O)NC1=O)[C@@H](C)O [MP-550, AZIDE-ATSP-7041 (Q9K)] | 4 (≈ 7.88 µg/mL) | 7.145 | 4.1 | > 50000 | 3.08 | 437 | 217 | – | – | –
CC(=O)N[C@@H](CCCCN=[N+]=[N-])C(=O)NCCC(=O)N[C@@H](CC(C)C)C(=O)N[C@H](C(=O)N[C@@H](Cc1ccccc1)C(=O)N[C@]1(C)CCCCCCC=CCCC[C@@](C)(C(=O)N[C@@H](CCCCN)C(=O)N[C@@H](C)C(=O)N[C@@H](C)C(N)=O)NC(=O)[C@H](CC2CCC2)NC(=O)[C@H](CCC(N)=O)NC(=O)[C@H](C)NC(=O)[C@H](Cc2c[nH]c3ccccc23)NC(=O)[C@H](Cc2ccc(O)cc2)NC(=O)[C@H](CCC(=O)O)NC1=O)[C@@H](C)O [MP-551, AZIDE-ATSP-7041 (S12K)] (Ac-[Lys(N3)][βAla]LTF[R8]EYWAQ[Cba][S5]KAA-NH2; staple 6-13) | 2 (≈ 4.02 µg/mL) | 3.03 | -1.59 | > 50000 | 2.83 | 253 | 216 | – | – | –
CC(=O)N[C@@H](CCCCN=[N+]=[N-])C(=O)NCCC(=O)N[C@@H](CC(C)C)C(=O)N[C@@H](C)C(=O)N[C@@H](Cc1ccccc1)C(=O)N[C@]1(C)CCCCCCC=CCCC[C@@](C)(C(=O)N[C@@H](C)C(=O)N[C@@H](C)C(=O)N[C@@H](C)C(N)=O)NC(=O)[C@H](CC2CCC2)NC(=O)[C@H](CCC(N)=O)NC(=O)[C@H](C)NC(=O)[C@H](Cc2c[nH]c3ccccc23)NC(=O)[C@H](Cc2ccc(O)cc2)NC(=O)[C@H](CCC(=O)O)NC1=O [MP-963, AZIDE-ATSP-7041 (T2A,S12A)] (Ac-[Lys(N3)][βAla]LAF[R8]EYWAQ[Cba][S5]AAA-NH2; staple 6-13) | 100 (≈ 192 µg/mL) | 11.69 | -0.52 | > 50000 | 2.97 | 177 | 220 | – | – | –
CC(=O)N[C@@H](CCCCN=[N+]=[N-])C(=O)NCCC(=O)N[C@@H](CC(C)C)C(=O)N[C@H](C(=O)N[C@@H](Cc1ccccc1)C(=O)N[C@]1(C)CCCCCCC=CCCC[C@@](C)(C(=O)N[C@@H](CO)C(=O)N[C@@H](C)C(=O)N[C@@H](C)C(N)=O)NC(=O)[C@H](CC2CCC2)NC(=O)[C@H](CCC(N)=O)NC(=O)[C@H](CCCCN)NC(=O)[C@H](Cc2c[nH]c3ccccc23)NC(=O)[C@H](Cc2ccc(O)cc2)NC(=O)[C@H](CCC(=O)O)NC1=O)[C@@H](C)O [MP-549, AZIDE-ATSP-7041 (A8K)] | 4.5 (≈ 9.12 µg/mL) | 7.105 | 45.26 | > 50000 | 2.75 | 233 | 220 | – | – | –
CC(=O)N[C@@H](CCCCN=[N+]=[N-])C(=O)N[C@@H](CCCCN)C(=O)NCCCCCC(=O)N[C@H](C(=O)N[C@@H](CO)C(=O)N[C@@H](Cc1ccccc1)C(=O)N[C@]1(C)CCCCCCC=CCCC[C@@](C)(C(=O)N[C@@H](CCC(=O)O)C(=O)N[C@@H](CC(N)=O)C(=O)N[C@@H](Cc2ccccc2)C(N)=O)NC(=O)[C@H](CC(C)C)NC(=O)[C@H](CC(C)C)NC(=O)[C@H](C)NC(=O)[C@H](Cc2c[nH]c3ccccc23)NC(=O)[C@H](Cc2ccc(O)cc2)NC(=O)[C@H](CCC(=O)O)NC1=O)[C@@H](C)O [MP-084] (Ac-[Lys(N3)]K[Ahx]TSF[R8]EYWALL[S5]ENF-NH2; staple 7-14) | 2 (≈ 4.5 µg/mL) | – | – | – | 2.56 | – | 187 | 0.08783 | > 50700 | 74.5
CC(=O)N[C@@H](CCCCN=[N+]=[N-])C(=O)NCCC(=O)N[C@@H](CC(C)C)C(=O)N[C@@H](C)C(=O)N[C@@H](Cc1ccccc1)C(=O)N[C@]1(C)CCCCCCC=CCCC[C@@](C)(C(=O)N[C@@H](CO)C(=O)N[C@@H](C)C(=O)N[C@@H](C)C(N)=O)NC(=O)[C@H](CC2CCC2)NC(=O)[C@H](C)NC(=O)[C@H](C)NC(=O)[C@H](Cc2c[nH]c3ccccc23)NC(=O)[C@H](Cc2ccc(O)cc2)NC(=O)[C@H](CCC(=O)O)NC1=O [MP-962, AZIDE-ATSP-7041 (T2A,Q9A)] (Ac-[Lys(N3)][βAla]LAF[R8]EYWAA[Cba][S5]SAA-NH2; staple 6-13) | 77.5 (≈ 146 µg/mL) | 4.327 | – | > 50000 | 2.96 | 77.6 | 216 | – | – | –
CC(=O)N[C@@H](CCCCN=[N+]=[N-])C(=O)NCCC(=O)N[C@@H](CCCCN)C(=O)N[C@H](C(=O)N[C@@H](Cc1ccccc1)C(=O)N[C@]1(C)CCCCCCC=CCCC[C@@](C)(C(=O)N[C@@H](CO)C(=O)N[C@@H](C)C(=O)N[C@@H](C)C(N)=O)NC(=O)[C@H](CC2CCC2)NC(=O)[C@H](CCC(N)=O)NC(=O)[C@H](C)NC(=O)[C@H](Cc2c[nH]c3ccccc23)NC(=O)[C@H](Cc2ccc(O)cc2)NC(=O)[C@H](CCC(=O)O)NC1=O)[C@@H](C)O [MP-546, AZIDE-ATSP-7041 (L1K)] | 2 (≈ 3.97 µg/mL) | 34.42 | 13.56 | > 50000 | 2.85 | 210 | 229 | – | – | –
CC(=O)N[C@@H](CCCCN=[N+]=[N-])C(=O)NCCC(=O)N[C@@H](CC(C)C)C(=O)N[C@H](C(=O)N[C@@H](Cc1ccccc1)C(=O)N[C@]1(C)CCCCCCC=CCCC[C@@](C)(C(=O)N[C@@H](CO)C(=O)N[C@@H](C)C(=O)N[C@@H](C)C(N)=O)NC(=O)[C@H](CC2CCC2)NC(=O)[C@H](Cc2c[nH]cn2)NC(=O)[C@H](C)NC(=O)[C@H](Cc2c[nH]c3ccccc23)NC(=O)[C@H](Cc2ccc(O)cc2)NC(=O)[C@H](CCC(=O)O)NC1=O)[C@@H](C)O [MP-176, AZIDE-ATSP-7041 (Q9H)] | 2 (≈ 3.96 µg/mL) | 5.39 | 4.02 | > 50000 | 2.88 | 396 | 222 | – | – | –
CC(=O)N[C@@H](CCCCN=[N+]=[N-])C(=O)NCCC(=O)N[C@@H](CC(C)C)C(=O)N[C@@H](C)C(=O)N[C@@H](Cc1ccccc1)C(=O)N[C@]1(C)CCCCCCC=CCCC[C@@](C)(C(=O)N[C@@H](CO)C(=O)N[C@@H](C)C(=O)N[C@@H](C)C(N)=O)NC(=O)[C@H](CC2CCC2)NC(=O)[C@H](CCC(N)=O)NC(=O)[C@H](C)NC(=O)[C@H](Cc2c[nH]c3ccccc23)NC(=O)[C@H](Cc2ccc(O)cc2)NC(=O)[C@H](CCC(=O)O)NC1=O [MP-953, AZIDE-ATSP-7041 (T2A)] (Ac-[Lys(N3)][βAla]LAF[R8]EYWAQ[Cba][S5]SAA-NH2; staple 6-13) | 186 (≈ 361 µg/mL) | 11.05 | -0.16 | > 50000 | 2.93 | 494 | 221 | – | – | –
CC(=O)N[C@@H](CCCCN=[N+]=[N-])C(=O)NCCC(=O)N[C@@H](C)C(=O)N[C@H](C(=O)N[C@@H](Cc1ccccc1)C(=O)N[C@]1(C)CCCCCCC=CCCC[C@@](C)(C(=O)N[C@@H](CO)C(=O)N[C@@H](C)C(=O)N[C@@H](C)C(N)=O)NC(=O)[C@H](CC2CCC2)NC(=O)[C@H](CCC(N)=O)NC(=O)[C@H](C)NC(=O)[C@H](Cc2c[nH]c3ccccc23)NC(=O)[C@H](Cc2ccc(O)cc2)NC(=O)[C@H](C)NC1=O)[C@@H](C)O [MP-958, AZIDE-ATSP-7041 (L1A,E5A)] (Ac-[Lys(N3)][βAla]ATF[R8]AYWAQ[Cba][S5]SAA-NH2; staple 6-13) | 5 (≈ 9.35 µg/mL) | 13.33 | 4.88 | > 50000 | 3.13 | 333 | 207 | – | – | –
CC(=O)N[C@@H](CCCCN=[N+]=[N-])C(=O)NCCC(=O)N[C@@H](C)C(=O)N[C@H](C(=O)N[C@@H](Cc1ccccc1)C(=O)N[C@]1(C)CCCCCCC=CCCC[C@@](C)(C(=O)N[C@@H](C)C(=O)N[C@@H](C)C(=O)N[C@@H](C)C(N)=O)NC(=O)[C@H](CC2CCC2)NC(=O)[C@H](CCC(N)=O)NC(=O)[C@H](C)NC(=O)[C@H](Cc2c[nH]c3ccccc23)NC(=O)[C@H](Cc2ccc(O)cc2)NC(=O)[C@H](CCC(=O)O)NC1=O)[C@@H](C)O [MP-960, AZIDE-ATSP-7041 (L1A,S12A)] (Ac-[Lys(N3)][βAla]ATF[R8]EYWAQ[Cba][S5]AAA-NH2; staple 6-13) | 102 (≈ 194 µg/mL) | 17.36 | – | > 50000 | 2.76 | 286 | 221 | – | – | –
